From patent US20220395472A1 (Dermavant Sciences GmbH, priority 2021, published 2022)

Experiments:
Type in all cases: in vivo, human
[1] = tested on: adults with plaque psoriasis; test: Long-term extension study (PSOARING 3): Dermatology Life Quality Index (DLQI); set-up: key to DLQI Total Score, Observed, Mean / DLQI Total Score, Observed, Median: DLQI total score 0–30; higher = greater quality-of-life impairment
Text: Subjects completed the DLQI questionnaire. The DLQI is a simple, validated, dermatology specific, 10 question questionnaire to assess the impact of the disease on a subject's quality of life. The DLQI is an important outcome measure in dermatology clinical trials and is the most frequently used instrument in randomized, controlled dermatology trials. The DLQI can be analyzed as a total score (where a higher score indicates greater impairment in quality of life) and can also be scored for the following dimensions: Symptoms and Feelings (Items 1 and 2), Daily Activities (Items 3 and 4), Leisure (Items 5 and 6), Work and School (Item 7), Personal Relationships (Items 8 and 9), and Treatment (Item 10).
The DLQI is a 10 item subject reported outcome, 6 domain measure that assessed the extent to which the skin condition had affected the subject's quality of life over the past week. The total score (0 to 30) is the sum of 10 questions with each ranging from 0 to 3. The DLQI was assessed at 4 week intervals. If one question was left unanswered, this was scored as 0 and the scores were summed and expressed as usual out of a maximum of 30. If ≥2 questions were left unanswered, the total DLQI score was considered missing.
DLQI total score and sub scores on DLQI domains and their changes from baseline as well as percent change from baseline values were summarized descriptively. Additional details of the analysis of the DLQI are provided in the SAP.

[2] = tested on: adults with plaque psoriasis; test: Long-term extension study (PSOARING 3): patient-reported and investigator-assessed Local Tolerability Scale; settings: all anatomic regions incl. sensitive areas; 40 weeks
Procedure: Tolerability is defined as the local tolerability using a patient-reported 5-point scale for burning/stinging and itching, and an investigator-assessed 5-point scale for dryness, erythema, and peeling.
Tolerability was assessed subjectively via subject and objectively via Investigator throughout the 40 weeks of the study. The patient-reported local tolerability scale utilized for self-reported tolerability assessment is shown in Table 20, while the investigator-assessed local tolerability scale utilized is shown in Table 21.

[3] = tested on: adults with mild to severe plaque psoriasis; test: PSOARING 1 & 2 12-week pivotal phase 3 trials; settings: Week 12
Procedure: All secondary endpoints were met, with statistical significance. […] Here, we present further analyses of the DLQI results, including an evaluation of correlations between the DLQI and clinical efficacy as assessed by PGA and Psoriasis Area and Severity Index (PASI) scores in PSOARING 1 & 2.
The DLQI is a 10-item scale where each item rates impact on quality of life (QoL) on a 4-point scale from 0 (not at all) to 3 (very much); lower scores indicate higher QoL. Efficacy was evaluated using PGA and PASI. Spearman rank correlations were used to evaluate correlations between changes from baseline in efficacy and changes from baseline in QoL at Week 12. Analyses used observed cases and were based on the intention-to-treat population.

plaque psoriasis = test: 12-week phase 2b trial in psoriasis; settings: cream 1%; 12-week treatment
Text: As mentioned, tapinarof is a novel therapeutic aryl hydrocarbon receptor modulating agent (TAMA) in clinical development for the topical treatment of psoriasis and atopic dermatitis. […] AhR modulates T cell responses both through intrinsic control of T cell subset differentiation and via controlling the function of antigen presenting cells. In addition, AhR signaling promotes the conversion of Th17 cells to type 1 regulatory T cells. Aberrant immune responses underpin the pathogenesis of both PsO and AD, and the wide expression of AhR in immune cells makes it an attractive target given the essential role of AhR in regulating inflammatory responses and skin homeostasis. […] These clinical data support the role of AhR in skin immune homeostasis. Given the multitude of AhR-dependent immunoregulatory mechanisms, AhR is an attractive target for novel immunotherapies with the potential to extend therapeutic efficacy following treatment discontinuation; this may provide a unique clinical benefit to patients.
Treatment-emergent adverse events (TEAEs) were reported with a higher frequency in the tapinarof groups than in the vehicle groups. […]

[4] = Week 16 OC, Tapinarof (Pivotal)
[5] = Week 40 OC, Tapinarof (Pivotal)

CC(C)c1c(O)cc(/C=C/c2ccccc2)cc1O [Tapinarof, 3,5-Dihydroxy-4-isopropyl-trans-stilbene]
DLQI Total Score, Observed, Mean ([1]; Baseline, Overall): 4.3
DLQI Total Score, Observed, Median ([1]; Baseline, Overall): 2.0
DLQI Total Score, Observed, Mean ([1]; Baseline, Tapinarof (Pivotal)): 3.3
DLQI Total Score, Observed, Median ([1]; Baseline, Tapinarof (Pivotal)): 2.0
mean (SD) DLQI total score ([1]; Week 16, OC, Tapinarof (Pivotal) group): 2.0 (3.23)
mean (SD) DLQI total score ([1]; Week 16, OC, Vehicle (Pivotal) group): 3.0 (5.19)
DLQI Total Score, CFBL, Mean ([1]; Week 16 OC, Overall): −1.7
DLQI Total Score, CFBL, Median ([1]; Week 16 OC, Overall): −1.0
DLQI Total Score, Observed, Mean ([1]; Week 16 OC, Overall): 2.3
DLQI Total Score, Observed, Median ([1]; Week 16 OC, Overall): 1.0
DLQI Total Score, Percent CFBL, Mean ([1]; Week 16 OC, Overall): −30.7%
DLQI Total Score, Percent CFBL, Median ([1]; Week 16 OC, Overall): −60.0%
mean (SD) DLQI total score ([1]; Week 16 OC, Overall): 2.3 (4.02)
DLQI Total Score, CFBL, Mean [1, 4]: −1.0
DLQI Total Score, CFBL, Median [1, 4]: 0.0
DLQI Total Score, Observed, Mean [1, 4]: 2.0
DLQI Total Score, Observed, Median [1, 4]: 1.0
DLQI Total Score, Percent CFBL, Mean [1, 4]: −21.3%
DLQI Total Score, Percent CFBL, Median [1, 4]: −50.0%
DLQI Total Score, CFBL, Mean ([1]; Week 16 OC, Vehicle (Pivotal)): −3.1
DLQI Total Score, CFBL, Median ([1]; Week 16 OC, Vehicle (Pivotal)): −3.0
DLQI Total Score, Observed, Mean ([1]; Week 16 OC, Vehicle (Pivotal)): 3.0
DLQI Total Score, Observed, Median ([1]; Week 16 OC, Vehicle (Pivotal)): 1.0
DLQI Total Score, Percent CFBL, Mean ([1]; Week 16 OC, Vehicle (Pivotal)): −45.9%
DLQI Total Score, Percent CFBL, Median ([1]; Week 16 OC, Vehicle (Pivotal)): −73.0%
mean (SD) DLQI total score ([1]; Week 40, OC, Tapinarof (Pivotal) group): 1.6 (2.36)
mean (SD) DLQI total score ([1]; Week 40, OC, Vehicle (Pivotal) group): 2.0 (4.23)
DLQI Total Score, CFBL, Mean ([1]; Week 40 OC, Overall): −2.0
DLQI Total Score, CFBL, Median ([1]; Week 40 OC, Overall): −1.0
DLQI Total Score, Observed, Mean ([1]; Week 40 OC, Overall): 1.7
DLQI Total Score, Observed, Median ([1]; Week 40 OC, Overall): 1.0
DLQI Total Score, Percent CFBL, Mean ([1]; Week 40 OC, Overall): −41.6%
DLQI Total Score, Percent CFBL, Median ([1]; Week 40 OC, Overall): −72.1%
DLQI Total Score, CFBL, Mean [1, 5]: −1.1
DLQI Total Score, CFBL, Median [1, 5]: 0.0
DLQI Total Score, Observed, Mean [1, 5]: 1.6
DLQI Total Score, Observed, Median [1, 5]: 1.0
DLQI Total Score, Percent CFBL, Mean [1, 5]: −25.0%
DLQI Total Score, Percent CFBL, Median [1, 5]: −61.3%
DLQI Total Score, CFBL, Mean ([1]; Week 40 OC, Vehicle (Pivotal)): −3.9
DLQI Total Score, CFBL, Median ([1]; Week 40 OC, Vehicle (Pivotal)): −3.0
DLQI Total Score, Observed, Mean ([1]; Week 40 OC, Vehicle (Pivotal)): 2.0
DLQI Total Score, Observed, Median ([1]; Week 40 OC, Vehicle (Pivotal)): 0.0
DLQI Total Score, Percent CFBL, Mean ([1]; Week 40 OC, Vehicle (Pivotal)): −69.2%
DLQI Total Score, Percent CFBL, Median ([1]; Week 40 OC, Vehicle (Pivotal)): −88.9%
local tolerability (patient and investigator assessments) [2]: well-tolerated
PGA response (PGA 0 or 1 and ≥2-grade improvement from baseline) ([3]; PSOARING 1): 35.4%
mean change in DLQI from baseline ([3]; PSOARING 1): ~5.0
patients who achieved a DLQI of 0 or 1 ([3]; PSOARING 1): 47.4%
PGA response (PGA 0 or 1 and ≥2-grade improvement from baseline) ([3]; PSOARING 2): 40.2%
mean change in DLQI from baseline ([3]; PSOARING 2): ~4.7
patients who achieved a DLQI of 0 or 1 ([3]; PSOARING 2): 44.9%
time efficacy was maintained after treatment cessation (plaque psoriasis): 4 weeks
